From article PMC12024457 (Antioxidants, 2025)

Key:
[1] = TE: Trolox equivalent
[2] = DPPH radical scavenging assay; conditions: read-out: DPPH (EC50)
[3] = system: Human MDA-MB-231 breast cancer cells; assay type: cell-based
Experimental: MDA-MB-231 and LX2 cells were seeded in triplicate in 96-well plates at a density of 20,000 cells per well in 100 μL of medium and allowed to attach for 24 h at 37 °C and 5% CO2. Compounds were added at a final DMSO concentration of 0.5%, and cells were incubated for an additional 48 h. The pan-kinase inhibitor staurosporine (1 µM, Merck) was used as a reference compound, and the concentration was selected to efficiently induce cell death (≥90%). […]. The concentrations of Q-VD-OPh and ferrostatin-1 were chosen based on commonly applied ranges reported in the literature and were further optimized in preliminary experiments using the apoptosis inducers etoposide and staurosporine, as well as the ferroptosis inducer RSL3, to ensure suppression of apoptosis and ferroptosis, respectively. […] Absorbance was measured at 570 nm using a SpectraMax iD3 plate reader (Molecular Devices). Absorbance values from ethanol-treated cells were used for background subtraction, and cell viability was expressed as percentage relative to the vehicle control (DMSO). […]
Cells were treated with vehicle (0.5% DMSO) or compounds at different concentrations (0.3, 1, 3, 10, and 30 μM) for 48 h. Cell viability measured by MTT assay. […]

[4] = system: human LX2 stellate cells; test: MTT cell viability, LX2; assay type: cell-based; conditions: LX2, 48 h, up to 30 µM
Experimental: (§1) MDA-MB-231 and LX2 cells were seeded in triplicate in 96-well plates at a density of 20,000 cells per well in 100 μL of medium and allowed to attach for 24 h at 37 °C and 5% CO2. Compounds were added at a final DMSO concentration of 0.5%, and cells were incubated for an additional 48 h. The pan-kinase inhibitor staurosporine (1 µM, Merck) was used as a reference compound, and the concentration was selected to efficiently induce cell death (≥90%). […]. The concentrations of Q-VD-OPh and ferrostatin-1 were chosen based on commonly applied ranges reported in the literature and were further optimized in preliminary experiments using the apoptosis inducers etoposide and staurosporine, as well as the ferroptosis inducer RSL3, to ensure suppression of apoptosis and ferroptosis, respectively. […] For the MTT assay, 20 µL of 3-(4,5-dimethylthiazol-2-yl)-2,5-diphenyltetrazolium bromide (MTT, 5 mg/mL in PBS pH = 7.4, sterile-filtered, Merck) solution was added to each well, and the cells were incubated for 1.5 h. […] Absorbance was measured at 570 nm using a SpectraMax iD3 plate reader (Molecular Devices). Absorbance values from ethanol-treated cells were used for background subtraction, and cell viability was expressed as percentage relative to the vehicle control (DMSO). […]

[5] = system: MDA-MB-231 cells; test: Inhibition of RSL3-induced ferroptotic cell death (MTT); assay type: cell-based, human; conditions: at either 3 or 30 μM, RSL3 0.3 µM
Experimental: The anti-ferroptotic properties of the compounds were evaluated in MDA-MB-231 cells. Cells were seeded in 96-well plates at a density of 20,000 cells per well in 100 μL of medium. After 24 h at 37 °C and 5% CO2, cells were treated with the vehicle (0.5% DMSO) or the compounds at 3 µM and 30 µM alone or in combination with RSL3 (0.3 μM, Cayman Chemicals) for an additional 48 h. The cellular dehydrogenase activity was assessed by the reduction of MTT, as described in Section 2.4.
Radar plot illustrating cell viability measured by MTT assay. […] Data are presented as the mean of n = 3 independent experiments. * p < 0.05, ** p < 0.01; paired Student’s t-test.

[6] = system: human triple-negative MDA-MB-231 breast cancer cells; test: MTT cell viability, MDA-MB-231; assay type: cell-based; conditions: MDA-MB-231, 48 h, up to 30 µM
Experimental: as §1

EC50 [2] [µM]	Structure (SMILES)	ORAC (TE) [1] [TE]	effect of ferroptosis inhibitor Fer-1 on compound-induced cell death ([3]; Fer-1 10 μM, 48 h)	effect of apoptosis inhibitor Q-VD on compound-induced cell death ([3]; human)	EC50 [4] [µM]	cytoprotective effects against RSL3-induced ferroptosis [5]	EC50 [6] [µM]
> 1000	OCCc1ccc(O)cc1 [TYR, tyrosol]	2.18 ± 0.12					
31 ± 2.6	COc1cc(CCO)ccc1O [MTYR, 3-methoxy-tyrosol]	2.90 ± 0.21					
	COc1cc(/C=C/C(=O)CC(=O)/C=C/c2ccc(O)c(OC)c2)ccc1O [Curcumin]		partially attenuated by Fer-1	tendentially by Q-VD	23	did not exhibit cytoprotective effects	20
> 1000	COc1ccc2[nH]cc(CCO)c2c1 [MEL, 5-methoxytryptophol]	2.23 ± 0.12					

Structure (SMILES)	EC50 [2] [µM]	ORAC (TE) [1] [TE]	effect of ferroptosis inhibitor Fer-1 on compound-induced cell death ([3]; Fer-1 10 μM, 48 h)	effect of apoptosis inhibitor Q-VD on compound-induced cell death ([3]; human)	EC50 [4] [µM]	cytoprotective effects against RSL3-induced ferroptosis [5]	EC50 [6] [µM]
OCCc1ccc(O)c(O)c1 [HTYR, 3-hydroxy-tyrosol]	12.3 ± 1	7.40 ± 0.17					
